Data published in patent US8980946B2, “Treatment of obesity using non-daily administration of 6-O-(4-dimethylaminoethoxy) cinnamoyl fumagillol” (Zafgen, Inc., priority 2010, dated 2015).
“And” between values parts separate entries of the source, which are not always exact repeats. Equal values may be shown once. Marks after values point to notes of the source that are not given here.

What was measured:
[1] = human, in vivo
Experimental: (§1) The compound was intravenously administered to each patient of a cohort (except for a placebo cohort) twice weekly for 26 days. Each of patients in the three non-placebo cohorts received either 0.1 mg/m^2 (cohort 1); 0.3 mg/m^2 (cohort 2); or 0.9 mg/m^2 (cohort 3) doses of the compound at the time of administration. The trial was conducted under the appropriate government and medical supervision.
There was a significant correlation between weight loss of patients and maintained exposure of 0.02 ng/mL of the drug above the level of quantitation of the assay 24 hours after dosing, as shown in FIG. 4 (circled data point is exposure of one poor responder below the level of quantitation of assay). The PK profile at day 26 is representative of steady state (see FIG. 5).

adiponectin = assay: Adiponectin levels in the serum of patients undergoing the trial; format: in vivo, human; details: with treatment
Experimental: Levels of adiponectin in the serum of patients undergoing the trial were also measured.

Sprague-Dawley male rats = assay: Testis toxicity study, subcutaneous administration daily or every third day for 4 weeks; format: in vivo, rat
Experimental: A testis toxicity study was performed using daily subcutaneous administration or every other day (every third day) subcutaneous administration in rats. […] Additionally, equivalent total exposure using a 3 mg/kg dose administered every third day was compared as well.
64 Sprague-Dawley male rats within ±20% of mean body weight at initiation of dosing were used for the study. Vehicle control or Compound was administered once daily or every 3rd day for 4 weeks, at a volume of 5 mL/kg, as follows, with groups 1-4 for toxicity and groups 5-8 for toxicokinetic studies.
Upon completion of the study, complete necropsy examinations are performed, and the seminal vesicle, testes, and other organs are weighed at terminal necropsy. Terminal body weights are determined just prior to necropsy for assessment of organ weight changes.

[2] = Twice weekly intravenous administration to obese patients for 26 days: body weight; format: in vivo, human
Experimental: as §1
Table 1 summarizes body weight determination of the 9 patients in the 0.9 mg/m^2 cohort on the day of the first dose and prior to a second dose administered three or four days later.
(§2) FIG. 1 depicts the body weight change (loss) as a percent before each administration of the twice weekly dose for the 0.9 mg/m^2 cohort. FIG. 2 depicts the Visual Analog Scale reports of hunger decline about 50% following successive biweekly dose administration for the 0.9 mg/m^2 cohort.
All of the subjects of the trial described in Example 1 received doses ranging from 1.8 to 2.2 mg with each administration (given twice weekly). However, weight change was not strictly associated with dose delivered. Instead, response was strongly associated with dose administered per unit excess body weight, as compared to weight change associated with dose delivered per unit body weight.

[3] = Visual Analog Scale of hunger in obese patients, twice weekly dosing; format: in vivo, human; details: successive twice weekly doses, 0.9 mg/m^2 cohort
Experimental: FIG. 2 depicts visual analogue scale of hunger decline by approximately 50% with body weight change (percent) with twice weekly dosing off 0.1 mg/m^2, 0.3 mg/m^2, and 0.9 mg/m^2 (approximately 1.8 to 2.1 mg) of 6-O-(4-dimethylaminoethoxy)cinnamoyl fumagillol in human patients. Values are means (n=6 per dose level) of changes in fasted Visual Analog Scale scores for each visit day vs. Day 1 for population; p values derived from 2-way ANOVA with Bonferroni post-test comparisons (*, p<0.05; **, p<0.01 vs. placebo).
as §1, §2

[4] = Injection site tolerability; format: in vivo; details: doses up to 6 mg
[5] = rat, s.c., 4 weeks, 1 mg/kg daily
[6] = rat, s.c., 4 weeks, 1 mg/kg every 3rd day
[7] = rat, s.c., 4 weeks, 3 mg/kg every 3rd day
[8] = average of 9 patients, 0.9 mg/m^2 cohort, first dose to before second dose
[9] = individual subject, 0.9 mg/m^2 cohort, first dose to before second dose three or four days later

- drug exposure at 24 hours post dose associated with weight loss [1]: above 0.02 ng/mL
- AUC (0-24 hr) measured range ([1]; iv, 0.9 mg/m2): 8.57 to 13.6 ng·h/mL
- T1/2 (H) λz (terminal) ([1]; iv, 0.9 mg/m2): 5.41±2.82 H
- average AUC (0-24 hr) ([1]; iv, 0.9 mg/m2): 10.5 ng·h/mL
- average AUC (0-∞) ([1]; iv, 0.9 mg/m2): 11 ng·h/mL
- average Cmax ([1]; iv, 0.9 mg/m2): 2.1 ng/mL
- terminal half life ([1]; iv, 0.9 mg/m2): 5.4 h
SMILES: CO[C@@H]1[C@H](OC(=O)/C=C/c2ccc(OCCN(C)C)cc2)CC[C@]2(CO2)[C@H]1[C@@]1(C)O[C@@H]1CC=C(C)C.O=C(O)C(=O)O [6-O-(4-dimethylaminoethoxy)cinnamoyl fumagillol oxalate]
- increase of adiponectin concentrations (adiponectin): over 60%
- Clinical Chemistry findings (Sprague-Dawley male rats; rat, 1 mg/kg Q3D): No findings
- Hematology findings (Sprague-Dawley male rats; rat, 1 mg/kg Q3D): No findings
- Macroscopic findings (Sprague-Dawley male rats; rat, 1 mg/kg Q3D): No findings
- Microscopic findings (Sprague-Dawley male rats; rat, 1 mg/kg Q3D): No findings
- Organ weight findings (Sprague-Dawley male rats; rat, 1 mg/kg Q3D): No findings
- Clinical Chemistry: Higher albumin/globulin (Sprague-Dawley male rats; rat, 1 mg/kg/day): Higher albumin/globulin (1.12X)
- Clinical Chemistry: Higher potassium (Sprague-Dawley male rats; rat, 1 mg/kg/day): Higher potassium (1.2X)
- Clinical Chemistry: Reduced Inorg phosphate (Sprague-Dawley male rats; rat, 1 mg/kg/day): Reduced Inorg phosphate (0.96 X)
- Clinical Chemistry: Reduced alk phos (Sprague-Dawley male rats; rat, 1 mg/kg/day): Reduced alk phos (0.72X)
- Hematology findings (Sprague-Dawley male rats; rat, 1 mg/kg/day): Reduced blood cell counts
- Hematology: Basophil (Sprague-Dawley male rats; rat, 1 mg/kg/day): 0.55 X
- Hematology: Eosinophil (Sprague-Dawley male rats; rat, 1 mg/kg/day): 0.75 X
- Hematology: Large unstained cell (Sprague-Dawley male rats; rat, 1 mg/kg/day): (0.67X)
- Hematology: Lymphocyte (Sprague-Dawley male rats; rat, 1 mg/kg/day): 0.65 X
- Hematology: Monocyte (Sprague-Dawley male rats; rat, 1 mg/kg/day): 0.79 X
- Hematology: Neutrophil (Sprague-Dawley male rats; rat, 1 mg/kg/day): 0.83 X
- Hematology: WBC (Sprague-Dawley male rats; rat, 1 mg/kg/day): 0.68 X
- Macroscopic findings (Sprague-Dawley male rats; rat, 1 mg/kg/day): Smaller testes and epididymides
- Microscopic findings, lymph node (Sprague-Dawley male rats; rat, 1 mg/kg/day): Lymph node atrophy
- Microscopic: Germ cell depletion/degeneration (incidence) (Sprague-Dawley male rats; rat, 1 mg/kg/day): Germ cell depletion/degeneration 9/10
- Organ weight: Adrenal (Sprague-Dawley male rats; rat, 1 mg/kg/day): (1.24X)
- Organ weight: Brain (Sprague-Dawley male rats; rat, 1 mg/kg/day): 1.15 X
- Organ weight: Epididymides (Sprague-Dawley male rats; rat, 1 mg/kg/day): 0.88 X
- Organ weight: Liver (Sprague-Dawley male rats; rat, 1 mg/kg/day): 0.85 X
- Organ weight: Prostate (Sprague-Dawley male rats; rat, 1 mg/kg/day): 0.83 X
- Organ weight: Salivary gland (Sprague-Dawley male rats; rat, 1 mg/kg/day): 0.87 X
- Organ weight: Seminal vesicle (Sprague-Dawley male rats; rat, 1 mg/kg/day): 0.79 X
- Organ weight: Spleen (Sprague-Dawley male rats; rat, 1 mg/kg/day): 0.71 X
- Organ weight: Testes (Sprague-Dawley male rats; rat, 1 mg/kg/day): 0.83 X
- Organ weight: Thymus (Sprague-Dawley male rats; rat, 1 mg/kg/day): 0.86 X
- Organ weight: Thyroid (Sprague-Dawley male rats; rat, 1 mg/kg/day): 0.82 X
- overall findings (Sprague-Dawley male rats; rat, 1 mg/kg/day): adverse findings (e.g. blood dyscrasias and/or irreversible testis lesions)
- Clinical Chemistry: Higher albumin/globulin (Sprague-Dawley male rats; rat, 3 mg/kg Q3D): (1.09X)
- Hematology findings (Sprague-Dawley male rats; rat, 3 mg/kg Q3D): No findings
- Macroscopic findings (Sprague-Dawley male rats; rat, 3 mg/kg Q3D): No findings
- Microscopic findings (Sprague-Dawley male rats; rat, 3 mg/kg Q3D): No findings
- Organ weight findings (Sprague-Dawley male rats; rat, 3 mg/kg Q3D): No findings
- animal weight (Sprague-Dawley male rats; rat, 3 mg/kg every three days): reduces animal weight significantly
- overall findings (Sprague-Dawley male rats; rat, 3 mg/kg every three days): does not show any significant adverse findings
- Epididymides absolute weight (Sprague-Dawley male rats; [5]): 1.130 g
- Prostate absolute weight (Sprague-Dawley male rats; [5]): 0.546 g
- Seminal Vesicles absolute weight (g) (Sprague-Dawley male rats; [5]): 1.201** g
- Testes absolute weight (g) (Sprague-Dawley male rats; [5]): 2.569* g
- Thymus absolute weight (Sprague-Dawley male rats; [5]): 0.343 g
- Epididymides absolute weight (Sprague-Dawley male rats; [6]): 1.249 g
- Prostate absolute weight (Sprague-Dawley male rats; [6]): 0.710 g
- Seminal Vesicles absolute weight (Sprague-Dawley male rats; [6]): 1.523 g
- Testes absolute weight (Sprague-Dawley male rats; [6]): 3.097 g
- Thymus absolute weight (Sprague-Dawley male rats; [6]): 0.421 g
- Epididymides absolute weight (Sprague-Dawley male rats; [7]): 1.267 g
- Prostate absolute weight (Sprague-Dawley male rats; [7]): 0.663 g
- Testes absolute weight (Sprague-Dawley male rats; [7]): 3.273 g
- Thymus absolute weight (Sprague-Dawley male rats; [7]): 0.423 g
- tissue weight effects (testes and seminal vesicle weights) (Sprague-Dawley male rats; rats administered with less frequent dosing (every third day)): no tissue weight effects
- efficacy (weight loss) ([2]; 0.1 and 0.3 mg/m^2 twice weekly): Lack of efficacy
- dose with which maximum efficacy is obtained ([2]; administered biweekly): ~0.02 mg/kg
- doses at which weight loss efficacy is obtained ([2]; administered twice weekly): ≥ 0.02 mg/kg
- dose at which weight loss plateaus ([2]; administered twice weekly (~1.8 mg dose)): 0.9 mg/m^2
- weight loss at follow up check at day 36 ([2]; after twice weekly regimen over 26 days): substantially sustained
- Weight Change (%), Average [2, 8]: −0.7%
- Weight Change (kg), Average [2, 8]: -0.7 kg
- Ending weight (kg), Average ([2]; average of 9 patients, 0.9 mg/m^2 cohort, prior to second dose): 103.9 kg
- Weight Change [2, 9]: 0 kg and −0.5 kg and −0.7 kg and 0.2 kg and −0.6 kg and −1.1 kg (2×) and −0.9 kg and −1.9 kg
- Weight Change (%) [2, 9]: 0.0% and −0.5% and −0.6% (2×) and 0.2% and −1.1% and −0.9% and −1.9% and −1.0%
- Ending weight ([2]; individual subject, 0.9 mg/m^2 cohort, prior to second dose three or four days after first dose): 107.9 kg and 105 kg and 118 kg and 96.2 kg and 95.7 kg and 100.4 kg and 103.7 kg and 100.5 kg and 107.5 kg
- dose per kg of excess body weight to be exceeded to see effects ([2]; obese patients, twice weekly): > 40 μg of drug per kg of excess body weight
- number of patients showing greater than 3-4 percent body weight loss ([2]; of the 9 subjects at 0.9 mg/m^2, twice weekly, over 26 days of exposure): 7
- duration of weight reduction after single administration ([2]; single administration of 0.9 mg/m2 dose): 4 days
- Visual Analog Scale hunger decline [3]: about 50%
- Visual Analog Scale hunger decline ([3]; listed as 6-O-(4-dimethylaminoethoxy)cinnamoyl fumagillol): approximately 50%
- injection site tolerability [4]: acceptable
